Test results from article PMC10641818, “Development of First-in-Class Dual Sirt2/HDAC6 Inhibitors as Molecular Tools for Dual Inhibition of Tubulin Deacetylation” (Journal of Medicinal Chemistry, 2023).

Experiments:
Sirt3 = target: T1, Sirt3 (Homo sapiens, UniProt Q9NTG7); test: Sirt3 in vitro deacetylation assay (ZMAL); type: biochemical
T1 construct: the respective sirtuin (Sirt1_134–747, Sirt2_56–356, or Sirt3_118–395) was mixed with; made in house; host or cells: Escherichia coli BL21 Star (DE3)
T1 sequence (Q9NTG7 118-395): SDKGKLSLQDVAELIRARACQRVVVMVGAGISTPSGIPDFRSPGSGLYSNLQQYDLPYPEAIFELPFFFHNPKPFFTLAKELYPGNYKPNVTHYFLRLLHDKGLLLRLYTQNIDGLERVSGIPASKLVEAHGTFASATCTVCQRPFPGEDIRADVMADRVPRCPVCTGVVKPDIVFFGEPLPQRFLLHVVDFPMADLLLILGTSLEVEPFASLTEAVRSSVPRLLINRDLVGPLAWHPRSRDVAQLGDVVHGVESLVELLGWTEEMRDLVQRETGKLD

Sirt2 = target: T2, Sirt2 (Homo sapiens, UniProt Q8IXJ6); test: Sirt2 in vitro deacetylation assay (ZMAL, trypsin-based fluorescence); type: biochemical; conditions: deacetylation, mean ± SD
T2 construct: the respective sirtuin (Sirt1_134–747, Sirt2_56–356, or Sirt3_118–395) was mixed with; made in house; host or cells: Escherichia coli BL21 Star (DE3)
T2 sequence (Q8IXJ6 56-356): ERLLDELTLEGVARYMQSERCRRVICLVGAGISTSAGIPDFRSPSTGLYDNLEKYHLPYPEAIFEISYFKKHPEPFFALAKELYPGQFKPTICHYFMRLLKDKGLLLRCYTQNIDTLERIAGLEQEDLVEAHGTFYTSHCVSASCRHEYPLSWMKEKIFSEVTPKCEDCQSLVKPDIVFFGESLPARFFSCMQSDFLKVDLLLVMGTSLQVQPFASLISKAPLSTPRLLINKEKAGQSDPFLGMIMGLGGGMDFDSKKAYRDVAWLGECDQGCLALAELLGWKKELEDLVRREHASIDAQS

HDAC3/NcoR2 = target: T3, HDAC3/NcoR2 (Homo sapiens, UniProt O15379); test: HDAC3 in vitro deacetylation assay (ZMAL); type: biochemical; conditions: mean ± SD
T3 construct: purchased BPS Bioscience 50003

Sirt2 (demyristoylation) = target: T4, Sirt2 (demyristoylation) (Homo sapiens, UniProt Q8IXJ6); test: Discontinuous Sirt2 demyristoylation assay (ZMML substrate); type: biochemical; conditions: mean ± SD
T4 construct: the respective sirtuin (Sirt1_134–747, Sirt2_56–356, or Sirt3_118–395) was mixed with; made in house; host or cells: Escherichia coli BL21 Star (DE3)
T4 sequence (Q8IXJ6 56-356): T2 sequence (Q8IXJ6 56-356)

Sirt1 = target: T5, Sirt1 (Homo sapiens, UniProt Q96EB6); test: Sirt1 in vitro deacetylation assay (ZMAL); type: biochemical
T5 construct: the respective sirtuin (Sirt1_134–747, Sirt2_56–356, or Sirt3_118–395) was mixed with; made in house; host or cells: Escherichia coli BL21 Star (DE3)
T5 sequence (Q96EB6 134-747): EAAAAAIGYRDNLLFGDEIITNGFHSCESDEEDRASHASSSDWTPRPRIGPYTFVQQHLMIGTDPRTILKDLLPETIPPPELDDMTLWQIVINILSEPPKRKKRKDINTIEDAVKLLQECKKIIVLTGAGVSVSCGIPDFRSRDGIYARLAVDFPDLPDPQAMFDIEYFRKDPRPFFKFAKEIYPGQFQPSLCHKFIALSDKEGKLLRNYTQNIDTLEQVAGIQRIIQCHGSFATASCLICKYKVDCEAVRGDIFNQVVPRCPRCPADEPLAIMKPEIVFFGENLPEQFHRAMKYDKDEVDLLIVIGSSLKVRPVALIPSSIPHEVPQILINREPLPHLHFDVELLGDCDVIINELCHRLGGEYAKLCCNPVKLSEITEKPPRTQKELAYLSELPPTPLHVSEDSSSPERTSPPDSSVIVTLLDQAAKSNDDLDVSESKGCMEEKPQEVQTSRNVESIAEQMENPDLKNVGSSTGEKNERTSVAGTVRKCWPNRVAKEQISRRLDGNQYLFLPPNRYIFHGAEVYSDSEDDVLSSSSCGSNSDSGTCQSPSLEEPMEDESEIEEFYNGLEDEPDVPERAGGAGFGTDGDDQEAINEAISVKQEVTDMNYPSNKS

[1] = test system: MCF-7 breast cancer cells; test: Cell viability assay (MTT) MCF-7; type: cell-based; conditions: 72 h, @ 50 μM
Procedure: (§1) Cell viability assays of HGC27 and PC-3M-luc cells were performed by using the Celltiter 96 Aqueous Nonradioactive Proliferation Assay (Promega). Cells were seeded in sterile 96-well plates at a density of 2000 cells per well and incubated overnight at 37 °C and 5% CO2. Compound or vehicle were added to a final concentration of 0.5% DMSO. […] Cells were seeded at densities of 10^4 cells/well for W1 cells or 2 × 10^3 cells/well for MCF-7 cells. Tests were performed in 96-well plates (Sarstedt AG, Nümbrecht, Germany). After incubation overnight, cells were supplemented with half logarithmic dilution series of the indicated compounds and DPBS (PAN Biotech GmbH, Aidenbach, Germany) as control. Then 72 h after addition of cytostatic treatment, the MTT solution (20 μL, 5 mg/mL) was added into the wells for 1 h at 37 °C and 5% CO2 until formazan crystals were formed. The supernatant was removed, and the cells were dissolved in 200 μL of DMSO. Absorption was analyzed at 570 nm, with background subtraction at 690 nm, using a plate reader (Thermomultiscan EX, Thermo, Schwerte, Germany). Cell viability was then determined by nonlinear regression and a four-parameter logistic equation with variable hill slope. […] The significance of the difference of the effects of 33 and 4 + 57 was determined by using an unpaired, two-tailed t test with Welch’s correction, implemented in GraphPad Prism 8.4.0 (GraphPad, USA). Statistical significance was accepted if p < 0.05. Asterisks indicate *p < 0.05, **p < 0.01.

[2] = test system: PC-3M-luc prostate cancer cells; test: Cell viability assay (MTS) PC-3M-luc; type: cell-based; conditions: 72 h, @ 50 μM
Procedure: as §1

[3] = test system: HGC27 gastric carcinoma cells; test: Cell viability assay (MTS) HGC27; type: cell-based; conditions: Homo sapiens, HGC-27; 72 h, MTS, mean ± SD
Procedure: as §1

HDAC1 = target: T6, HDAC1 (Homo sapiens, UniProt Q13547); test: HDAC1 in vitro deacetylation assay (ZMAL); type: biochemical; conditions: deacetylation, mean ± SD
T6 construct: purchased BPS Bioscience 50051

HDAC6 = target: T7, HDAC6 (Homo sapiens, UniProt Q9UBN7); test: HDAC6 in vitro deacetylation assay (ZMAL); type: biochemical; design: purchased BPS Bioscience 50006; conditions: deacetylation, mean ± SD
T7 sequence (Q9UBN7 1-1215): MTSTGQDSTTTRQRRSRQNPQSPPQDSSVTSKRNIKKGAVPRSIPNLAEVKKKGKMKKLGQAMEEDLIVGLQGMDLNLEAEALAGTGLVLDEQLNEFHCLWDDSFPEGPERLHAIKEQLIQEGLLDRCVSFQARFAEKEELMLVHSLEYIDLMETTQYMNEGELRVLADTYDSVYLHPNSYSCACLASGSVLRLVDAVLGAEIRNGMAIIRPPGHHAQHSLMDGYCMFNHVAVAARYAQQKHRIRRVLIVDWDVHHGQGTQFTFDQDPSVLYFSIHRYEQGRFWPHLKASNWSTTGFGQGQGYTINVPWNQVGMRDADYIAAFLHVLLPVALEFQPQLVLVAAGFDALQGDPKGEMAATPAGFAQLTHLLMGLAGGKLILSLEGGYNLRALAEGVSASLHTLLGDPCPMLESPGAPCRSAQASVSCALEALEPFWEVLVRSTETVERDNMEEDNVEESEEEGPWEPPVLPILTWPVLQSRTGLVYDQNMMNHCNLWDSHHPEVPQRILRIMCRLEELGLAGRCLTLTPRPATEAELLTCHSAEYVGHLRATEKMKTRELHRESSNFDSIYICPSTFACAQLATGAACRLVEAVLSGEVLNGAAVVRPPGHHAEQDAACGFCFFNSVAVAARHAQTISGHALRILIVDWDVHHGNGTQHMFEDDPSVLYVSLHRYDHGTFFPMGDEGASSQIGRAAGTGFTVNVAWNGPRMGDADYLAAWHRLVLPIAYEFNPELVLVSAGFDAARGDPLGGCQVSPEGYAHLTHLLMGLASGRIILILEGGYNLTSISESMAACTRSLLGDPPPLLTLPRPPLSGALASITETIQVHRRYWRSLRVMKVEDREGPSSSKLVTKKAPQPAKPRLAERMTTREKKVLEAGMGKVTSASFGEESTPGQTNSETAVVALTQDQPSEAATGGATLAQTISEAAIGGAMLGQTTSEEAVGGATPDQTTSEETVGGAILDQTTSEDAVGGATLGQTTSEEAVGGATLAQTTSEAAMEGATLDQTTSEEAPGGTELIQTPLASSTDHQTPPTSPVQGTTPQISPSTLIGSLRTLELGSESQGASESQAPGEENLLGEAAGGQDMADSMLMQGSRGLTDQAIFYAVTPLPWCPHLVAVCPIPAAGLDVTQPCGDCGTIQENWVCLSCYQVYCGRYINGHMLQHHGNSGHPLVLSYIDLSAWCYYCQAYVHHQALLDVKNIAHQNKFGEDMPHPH

W1 ovarian cancer cells = test: Cell viability assay (MTT) W1; type: cell-based; conditions: 72 h, @ 50 μM
Procedure: as §1

HDAC2 = target: T8, HDAC2 (Homo sapiens, UniProt Q92769); test: HDAC2 in vitro deacetylation assay (ZMAL); type: biochemical; conditions: mean ± SD
T8 construct: purchased BPS Bioscience 50052
T8 sequence (Q92769 whole entry): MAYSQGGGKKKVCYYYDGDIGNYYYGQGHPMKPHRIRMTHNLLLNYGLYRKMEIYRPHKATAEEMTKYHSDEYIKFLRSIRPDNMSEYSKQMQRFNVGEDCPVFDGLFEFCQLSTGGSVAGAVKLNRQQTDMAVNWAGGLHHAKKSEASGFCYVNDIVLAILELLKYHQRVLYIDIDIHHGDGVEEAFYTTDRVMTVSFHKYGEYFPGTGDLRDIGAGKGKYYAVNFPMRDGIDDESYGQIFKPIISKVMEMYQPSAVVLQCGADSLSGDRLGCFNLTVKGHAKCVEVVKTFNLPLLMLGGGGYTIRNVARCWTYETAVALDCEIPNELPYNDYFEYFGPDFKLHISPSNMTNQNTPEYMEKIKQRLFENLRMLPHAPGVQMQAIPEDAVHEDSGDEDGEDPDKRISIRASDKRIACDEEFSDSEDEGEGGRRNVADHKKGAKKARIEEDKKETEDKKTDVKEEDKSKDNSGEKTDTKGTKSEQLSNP

T3 sequence (O15379 whole entry): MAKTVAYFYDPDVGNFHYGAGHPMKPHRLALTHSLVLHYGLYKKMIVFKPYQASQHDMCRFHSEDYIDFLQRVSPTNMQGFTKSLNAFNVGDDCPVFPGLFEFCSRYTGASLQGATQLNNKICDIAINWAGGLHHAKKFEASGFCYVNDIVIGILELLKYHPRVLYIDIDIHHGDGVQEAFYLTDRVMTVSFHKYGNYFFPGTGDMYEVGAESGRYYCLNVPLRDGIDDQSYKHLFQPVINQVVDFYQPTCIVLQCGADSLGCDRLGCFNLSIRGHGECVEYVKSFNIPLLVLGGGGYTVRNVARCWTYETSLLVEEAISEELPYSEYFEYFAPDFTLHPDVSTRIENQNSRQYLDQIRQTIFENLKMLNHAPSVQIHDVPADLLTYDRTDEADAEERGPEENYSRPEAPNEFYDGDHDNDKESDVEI
T3 sequence (Q9Y618 395-489 partner limits assumed): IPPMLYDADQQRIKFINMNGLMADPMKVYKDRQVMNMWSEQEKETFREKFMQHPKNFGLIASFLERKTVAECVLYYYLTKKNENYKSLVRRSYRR
T6 sequence (Q13547 whole entry): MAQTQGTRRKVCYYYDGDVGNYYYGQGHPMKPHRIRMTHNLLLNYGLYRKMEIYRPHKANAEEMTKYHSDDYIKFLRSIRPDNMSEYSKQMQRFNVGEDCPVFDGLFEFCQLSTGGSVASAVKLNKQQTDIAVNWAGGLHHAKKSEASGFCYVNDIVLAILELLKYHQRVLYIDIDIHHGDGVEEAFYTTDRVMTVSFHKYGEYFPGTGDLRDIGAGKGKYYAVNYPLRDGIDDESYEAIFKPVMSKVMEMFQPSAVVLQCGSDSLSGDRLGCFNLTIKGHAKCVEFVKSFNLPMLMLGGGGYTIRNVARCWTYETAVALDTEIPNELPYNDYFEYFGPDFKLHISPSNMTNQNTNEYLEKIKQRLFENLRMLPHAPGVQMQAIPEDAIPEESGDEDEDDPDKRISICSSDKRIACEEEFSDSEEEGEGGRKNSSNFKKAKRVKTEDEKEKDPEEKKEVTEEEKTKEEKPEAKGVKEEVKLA

- inhibition at 20 µM (Sirt3): < 15%
- IC50 (Sirt2): 480 ± 70 nM
- IC50 (HDAC3/NcoR2): 140 ± 10 nM
- IC50 (Sirt2 (demyristoylation)): 13200 ± 1900 nM
- inhibition at 20 µM (Sirt1): < 15%
- EC50 [3]: 17200 ± 1000 nM
- IC50 (HDAC1): 210 ± 30 nM
- IC50 (HDAC6): 5 ± 0.5 nM
- IC50 (HDAC2): 340 ± 20 nM
SMILES: Cc1cc(C)nc(SCC(=O)Nc2ncc(Cc3cccc(OCc4cn(CCOCCOCCOCCOCCC(=O)Nc5ccc(C(=O)NCCCCCCC(=O)NO)cc5)nn4)c3)s2)n1 [Compound 46, 4-(1-(4-((3-((2-(2-((4,6-Dimethylpyrimidin-2-yl)thio)acetamido)thiazol-5-yl)methyl)phenoxy)methyl)-1H-1,2,3-triazol-1-yl)-3,6,9,12-tetraoxapentadecan-15-amido)-N-(7-(hydroxyamino)-7-oxoheptyl)benzamide]
- MCF-7 cellular effect [1]: ni ^b (ni = no inhibition (cellular effect <20% @ 50 μM))
- PC-3M-luc cellular effect [2]: ni ^b (ni = no inhibition (cellular effect <20% @ 50 μM))
- W1 cellular effect (W1 ovarian cancer cells): ni ^b (ni = no inhibition (cellular effect <20% @ 50 μM))
